Test results reported in paper PMC9866588, “Novel 7-Chloro-4-aminoquinoline-benzimidazole Hybrids as Inhibitors of Cancer Cells Growth: Synthesis, Antiproliferative Activity, in Silico ADME Predictions, and Docking” (Molecules, 2023).

Experiments:
THP-1 cells = assay: Flow cytometry analysis of cell cycle, THP-1; assay type: cell-based, human; details: THP-1, 5 μM, 24 h
Procedure: (§1) To analyze the effects of the selected compounds (5d, 8d, and 12d) on the cell cycle of the HuT78 and THP-1 cells, the cells were seeded in 6-well plates (5 × 10^5 cells per well) and treated for 24 h with the selected compounds 5d and 12d (5 μM). The cells were then collected and fixed in cold 70% ethanol. The fixed samples were stained with 15 µg/mL of propidium iodide (PI) at room temperature and analyzed by flow cytometry (FACS Canto II, BD Biosciences). The results were analyzed using FlowLogic software.
(§2) One-way ANOVA analysis of variance was performed in the MedCalc statistical program for the analysis of the cell cycle. p-values of less than 0.05 were considered to be statistically significant.

[1] = test system: Hut78 (T-cell lymphoma) cells; assay: MTT antiproliferative assay, HuT78; assay type: cell-based, human
Procedure: (§3) The growth inhibition activity was assessed according to the slightly modified procedure performed at the National Cancer Institute, Developmental Therapeutics Program.
(§4) The examined compounds were dissolved in DMSO (1 × 10^−2 M). The experiments were carried out on seven human tumor cell lines and a normal cell line. The following cell lines were used: HeLa (human cervical adenocarcinoma; purchased from ATCC), CaCo-2 (human colorectal adenocarcinoma), MCF-7 (human breast adenocarcinoma), CCRF-CEM (human acute lymphoblastic leukemia), Hut78 (T-cell lymphoma), THP-1 (acute monocytic leukemia), Burkitt lymphoma (Raji), and MDCK1 (Madine–Darby canine kidney). The MDCK1 cells were used between 24 and 26 passages.
(§5) The adherent cells were cultured in Dulbecco’s modified Eagle medium—DMEM (Gibco, Termo Fisher Scientific Inc., Leicestershire, England, UK), supplemented with 10% heat-inactivated fetal bovine serum (FBS, Gibco, Termo Fisher Scientific Inc., Leicestershire, England, UK), 2 mM glutamine, and 100U/0.1mg penicillin/streptomycin. The cells in suspension were cultured in RPMI 1640 (Gibco, Termo Fisher Scientific Inc., Leicestershire, England, UK) medium, supplemented with 10% FBS (Gibco, Termo Fisher Scientific Inc., Leicestershire, England, UK), 2 mM glutamine, 1 mM sodium pyruvate, and 10 mM HEPES. The cells were grown in a humidified atmosphere under the conditions of 37 °C/5% of CO2 gas in the CO2 incubator (IGO 150 CELLlife^TM, JOUAN, Thermo Fisher Scientific, Waltham, MA, USA).
(§6) The adherent cells (HeLa, CaCo-2, MCF-7, and MDCK-1) were plated in 96-well flat bottom plates (Greiner, Frickenhausen, Austria) at a concentration of 2 × 10^4 cells/mL. The suspension cells (Raji, THP-1, CCRF-CEM and Hut78) were plated in 96-well microtiter plates (Sarstead, Newton, NC, USA) at a concentration of 1 × 10^5 cells/mL. Twenty-four hours later, the cells were treated with test agents in […] and incubated for a further 72 h. The working dilutions were freshly prepared on the day of testing. The solvent was also tested for eventual inhibitory activity by adjusting its concentration to be the same as in the working concentrations. After 72 h of incubation, the cell growth rate was evaluated by performing the MTT assay, which detects dehydrogenase activity in viable cells. For this purpose, upon completion of the incubation period, the growth medium was discarded and 50 μL of MTT was added to each well at a concentration of 5 mg/mL. After four hours of incubation at 37 °C, the water insoluble MTT-formazan crystals were dissolved in 150 μL of dimethyl-sulfoxide (DMSO) for the adherent cells and in 10% SDS with 0.01 mol/L HCl for the cells grown in suspension. The absorbance (OD, optical density) was measured on a microplate reader (iMark, BIO RAD, Hercules, CA, USA) at 595 nm.
(§7) The percentage of live cells was calculated as follows: % = OD (sample) − OD (background)/OD (control) − OD (background) × 100.
(§8) The optical density (OD) of the background for the adherent cells is the OD of the MTT solution and DMSO; the OD (background) for the suspension cells is the OD of the culture medium with MTT and 10% SDS with 0.01 mol/L HCl; the OD (control) is the OD of the cells grown without the tested compounds.
(§9) The calculation of the GI50 value curves and QC analysis was performed using the Excel tools and GraphPadPrism software (La Jolla, CA, USA), v. 5.03. Briefly, individual concentration effect curves are generated by plotting the logarithm of the concentration of the tested compounds (X) vs. the corresponding percent inhibition values (Y) using the least squares fit. The best-fit GI50 values are calculated using log (inhibitor) versus normalized response—variable slope equation, where Y Ľ 100/(1 ţ 10 ((LogIC50 _ X) × HillSlope)). The QC criteria parameters (Z0, S:B, R2, HillSlope) were checked for every GI50 curve.

[2] = test system: THP-1 (acute monocytic leukemia) cells; assay: MTT antiproliferative assay, THP-1; assay type: cell-based, human
Procedure: as §3, §4, §5, §6, §7, §8, §9

[3] = test system: CCRF-CEM (human acute lymphoblastic leukemia) cells; assay: MTT antiproliferative assay, CCRF-CEM; assay type: cell-based; details: Homo sapiens, CCRF-CEM; 72 h, MTT, mean ± SD of three independent experiments
Procedure: as §3, §4, §5, §6, §7, §8, §9

[4] = test system: Raji (Burkitt lymphoma) cells; assay: MTT antiproliferative assay, Raji; assay type: cell-based, human; details: Homo sapiens, Raji; 72 h, MTT, mean ± SD of three independent experiments
Procedure: as §3, §4, §5, §6, §7, §8, §9

[5] = test system: HeLa (human cervical adenocarcinoma) cells; assay: MTT antiproliferative assay, HeLa; assay type: cell-based; details: 72 h, mean ± SD of three independent experiments
Procedure: as §3, §4, §5, §6, §7, §8, §9

HuT78 cells = assay: Flow cytometry analysis of cell cycle, HuT78; assay type: cell-based, human; details: HuT78, 5 μM, 24 h
Procedure: as §1, §2

[6] = test system: MCF-7 (human breast adenocarcinoma) cells; assay: MTT antiproliferative assay, MCF-7; assay type: cell-based; details: MCF7, 72 h, mean ± SD of three independent experiments
Procedure: as §3, §4, §5, §6, §7, §8, §9

Clc1ccc2c(Nc3cccc(-c4nc5ccccc5[nH]4)c3)ccnc2c1 [Compound 5d, N-(3-(1H-benzo[d]imidazol-2-yl)phenyl)-7-chloroquinolin-4-amine]
proportion of polyploid giant cancer cells (THP-1 cells): increased proportion | decrease in G0/G1 phase (THP-1 cells; vs control): 4.5 times | increase in G2/M phase (THP-1 cells; vs control): 62.8% | increase of cells in subG0/G1 phase (THP-1 cells; vs control): 2.9 times | GI50 ([1]; Homo sapiens, HuT78, 72 h, MTT, mean ± SD of three independent experiments): 400 ± 300 nM | tumor selectivity index (SI) HuT78 ([1]; with respect to MDCK1 cells): 51 | GI50 ([2]; Homo sapiens, THP-1, 72 h, MTT, mean ± SD of three independent experiments, read-out: GI50 THP1): 600 ± 300 nM | tumor selectivity index (SI) THP1 ([2]; with respect to MDCK1 cells): 34 | GI50 [3]: 8200 ± 6200 nM | GI50 [4]: 4300 ± 1200 nM | GI50 [5]: 700 ± 100 nM | proportion of polyploid giant cancer cells (HuT78 cells): increased proportion | decrease in G0/G1 phase (HuT78 cells; vs control): 5 times | increase in G2/M phase (HuT78 cells; vs control): 2 times | increase of cells in subG0/G1 phase (HuT78 cells; vs control): 13 times | GI50 [6]: 33600 ± 8300 nM
